Measurements taken from publication PMC10786919, “Design-rules for stapled peptides with in vivo activity and their application to Mdm2/X antagonists” (Nature Communications, 2024).
Where two headings read alike, the source gives them in different places. Positions of bridges follow the written chain, without caps; N, C: chain ends. Non-standard residues stand in square brackets, D forms with d. Residues, ends and D or L forms follow the SMILES beside them. Trp(6-Cl) = N[C@@H](Cc1c[nH]c2cc(Cl)ccc12)C(=O)O; 2Nal = N[C@@H](Cc1ccc2ccccc2c1)C(=O)O; Lys(Me2) = CN(C)CCCC[C@H](N)C(=O)O; R8 = C=CCCCCCC[C@@](C)(N)C(=O)O; Cba = N[C@@H](CC1CCC1)C(=O)O; S5 = C=CCCC[C@](C)(N)C(=O)O; Nle = CCCC[C@H](N)C(=O)O; Dap = NC[C@H](N)C(=O)O; Aib = CC(C)(N)C(=O)O; Ahx = NCCCCCC(=O)O

Assays:
[1] = Lactate dehydrogenase (LDH) release assay; type: cell-based
Method: (§1) HCT116 cells were stably transfected with a p53 responsive β-lactamase reporter and expanded in McCoy’s 5 A Medium with 10% fetal bovine serum (FBS), Blasticidin, and Penicillin/Streptomycin and then transferred to 1.5 ml freezing vials and stored under liquid nitrogen in growth media containing 5% DMSO. […] The cells were then seeded into a 384-well plate at a density of 8000 cells per well. […] The final working concentration of DMSO was 0.5%. Lactate dehydrogenase release was detected using the CytoTox-ONE Homogenous Membrane Integrity Assay Kit (Promega), as per the manufacturer’s instructions. Measurements were carried out using the Tecan plate reader. […] Measurements were taken a minimum of three times (biological replicates) and values are reported as geometric means of the replicates.

[2] = test system: HCT116 cells; test: Lactate dehydrogenase (LDH) release assay; type: cell-based
Method: as §1

SMILES | EC50 ([1]; LDH: Cytotoxicity assay EC50) | LDH: Cytotoxicity assay % Effect [2] | other results
CC(C)C[C@H](NC(=O)CCNC(=O)[C@@H](N)CCCCN=[N+]=[N-])C(=O)N[C@H](C(=O)N[C@@H](Cc1ccccc1)C(=O)N[C@]1(C)CCCCCCC=CCCC[C@@](C)(C(=O)N[C@@H](CO)C(=O)N[C@@H](C)C(=O)N[C@@H](C)C(N)=O)NC(=O)[C@H](CC2CCC2)NC(=O)[C@H](CCC(N)=O)NC(=O)[C@H](C)NC(=O)[C@H](Cc2c[nH]c3ccccc23)NC(=O)[C@H](Cc2ccc(O)cc2)NC(=O)[C@H](CCC(=O)O)NC1=O)[C@@H](C)O [MP-618] | – | – | EC50 ([1]; LDH: Cytotoxicity assay: EC50): > 50.7 µM
CC(=O)N[C@H](C(=O)N[C@@H](CO)C(=O)N[C@@H](Cc1ccccc1)C(=O)NC(C)(C)C(=O)N[C@@H](CCC(=O)O)C(=O)N[C@@H](Cc1ccc(O)cc1)C(=O)N[C@@H](Cc1c[nH]c2ccccc12)C(=O)N[C@@H](C)C(=O)N[C@@H](CC(C)C)C(=O)N[C@@H](CC1CCC1)C(=O)NC(C)(C)C(N)=O)[C@@H](C)O [MP-1154] (Ac-TSF[Aib]EYWAL[Cba][Aib]-NH2) | > 50 µM | 17.78% | –
CCCC[C@H](NC(=O)[C@H](CC(C)C)NC(=O)[C@H](C)NC(=O)[C@H](Cc1c[nH]c2ccccc12)NC(=O)[C@H](Cc1ccc(O)cc1)NC(=O)[C@H](CCC(=O)O)NC(=O)C(C)(C)NC(=O)[C@H](Cc1ccccc1)NC(=O)[C@H](CO)NC(=O)[C@@H](NC(C)=O)[C@@H](C)O)C(=O)NC(C)(C)C(N)=O [MP-156] | > 50 µM | -1.482% | –
CC(=O)N[C@H](CC(C)C)C(=O)N[C@H](C(=O)N[C@@H](Cc1ccccc1)C(=O)N[C@]1(C)CCCCCCC=CCCC[C@@](C)(C(=O)N[C@@H](CO)C(=O)N[C@@H](C)C(=O)N[C@H](C)C(N)=O)NC(=O)[C@H](CC2CCC2)NC(=O)[C@H](CC(C)C)NC(=O)[C@H](CCC(N)=O)NC(=O)[C@H](Cc2c[nH]c3ccccc23)NC(=O)[C@H](Cc2ccc(O)cc2)NC(=O)[C@H](CCC(=O)O)NC1=O)[C@@H](C)O [MP-7202] | – | – | EC50 ([1]; LDH: Cytotoxicity assay: EC50): > 50.6 µM
CCCC[C@@H]1NC(=O)[C@H](CC(C)C)NC(=O)[C@H](C)NC(=O)[C@H](Cc2c[nH]c3ccccc23)NC(=O)[C@H](Cc2ccc(O)cc2)NC(=O)[C@H](CCC(=O)O)NC(=O)[C@](C)(NC(=O)[C@H](Cc2ccccc2)NC(=O)[C@H](CO)NC(=O)[C@@H](NC(C)=O)[C@@H](C)O)CCCCCCC=CCCC[C@@](C)(C(N)=O)NC1=O [MP-151] | > 50 µM | 9.894% | –
CC(=O)N[C@H](C(=O)N[C@@H](CO)C(=O)N[C@@H](Cc1ccccc1)C(=O)N[C@]1(C)CCCCCCC=CCCC[C@@](C)(C(=O)N[C@@H](CCC(=O)O)C(N)=O)NC(=O)[C@H](CC2CCC2)NC(=O)[C@H](CC(C)C)NC(=O)[C@H](C)NC(=O)[C@H](Cc2c[nH]c3cc(Cl)ccc23)NC(=O)[C@H](Cc2ccc(O)cc2)NC(=O)[C@H](CCC(=O)O)NC1=O)[C@@H](C)O [MP-043] (Ac-TSF[R8]EY[Trp(6-Cl)]AL[Cba][S5]E-NH2; staple 4-11) | > 50 µM | 3.493% | –
CC(=O)N[C@@H](CCCCN=[N+]=[N-])C(=O)NCCC(=O)N[C@@H](CC(C)C)C(=O)N[C@H](C(=O)N[C@@H](Cc1ccccc1)C(=O)N[C@]1(C)CCCCCCC=CCCC[C@@](C)(C(=O)N[C@@H](CO)C(=O)N[C@@H](C)C(=O)N[C@@H](C)C(N)=O)NC(=O)[C@H](CC2CCC2)NC(=O)[C@H](CCC(N)=O)NC(=O)[C@H](C)N(C)C(=O)[C@H](Cc2c[nH]c3ccccc23)NC(=O)[C@H](Cc2ccc(O)cc2)NC(=O)[C@H](CCC(=O)O)NC1=O)[C@@H](C)O [MP-498] | – | – | EC50 ([1]; LDH: Cytotoxicity assay: EC50): > 50 µM; LDH: Cytotoxicity assay: % Effect [2]: 7.026%
CC(=O)N[C@@H](CCCCN)C(=O)N[C@@H](CCCCN)C(=O)N[C@H](C(=O)N[C@@H](CO)C(=O)N[C@@H](Cc1ccc2ccccc2c1)C(=O)N[C@]1(C)CCCCCCC=CCCC[C@@](C)(C(=O)N[C@@H](CCC(=O)O)C(N)=O)NC(=O)[C@H](CC2CCC2)NC(=O)[C@H](CC(C)C)NC(=O)[C@H](C)NC(=O)[C@H](Cc2c[nH]c3ccccc23)NC(=O)[C@H](Cc2ccc(O)cc2)NC(=O)[C@H](CCC(=O)O)NC1=O)[C@@H](C)O [MP-158] (Ac-KKTS[2Nal][R8]EYWAL[Cba][S5]E-NH2; staple 6-13) | > 50 µM | 9.197% | –
CC(=O)N[C@@H](CCCCN=[N+]=[N-])C(=O)NCCC(=O)N[C@@H](CC(C)C)C(=O)N[C@H](C(=O)N[C@@H](Cc1ccccc1)C(=O)N[C@]1(C)CCCCC#CC#CCCC[C@@](C)(C(=O)N[C@@H](C)C(=O)N[C@@H](C)C(=O)NC(C)(CCC(=O)O)C(=O)N[C@@H](C)C(=O)N[C@@H](C)C(=O)N[C@H](C)C(N)=O)NC(=O)[C@H](CC2CCC2)NC(=O)[C@H](CCC(N)=O)NC(=O)[C@H](C)NC(=O)[C@H](Cc2c[nH]c3ccccc23)NC(=O)[C@H](Cc2ccc(O)cc2)NC(=O)[C@H](CCC(=O)O)NC1=O)[C@@H](C)O (stereo partly drawn) [MP-467, Ac-K(N3)-(betaAla)-LTF(X)EYWAQ(Cba)(X)AA(a-methly-Glu)AA(DAla)-NH2] | – | – | EC50 ([1]; 0% FBS 4Hr, read-out: LDH: Cytotoxicity assay EC50): > 50.7 µM; EC50 ([1]; 10% FBS 16Hr, read-out: LDH: Cytotoxicity assay EC50): > 50.7 µM
CC(=O)N[C@@H](CCCCN=[N+]=[N-])C(=O)NCCC(=O)N[C@@H](CC(C)C)C(=O)N[C@@H](CCC(=O)O)C(=O)N[C@@H](Cc1ccccc1)C(=O)N[C@@]1(C)CCCCCCC=CCCC[C@@](C)(C(=O)N[C@@H](CO)C(=O)N[C@@H](C)C(=O)N[C@@H](C)C(N)=O)NC(=O)[C@H](CC2CCC2)NC(=O)[C@H](CCC(N)=O)NC(=O)[C@H](C)NC(=O)[C@H](Cc2c[nH]c3ccccc23)NC(=O)[C@H](Cc2ccc(O)cc2)NC(=O)[C@H](CCC(=O)O)NC1=O [MP-630] | – | – | EC50 ([1]; LDH: Cytotoxicity assay: EC50): > 50.7 µM
CCCC[C@@H]1NC(=O)[C@H](CC(C)C)NC(=O)[C@H](C)NC(=O)[C@H](Cc2c[nH]c3ccccc23)NC(=O)[C@H](Cc2ccc(O)cc2)NC(=O)[C@H](CCC(=O)O)NC(=O)[C@](C)(NC(=O)[C@H](Cc2ccc3ccccc3c2)NC(=O)[C@H](CO)NC(=O)[C@@H](NC(C)=O)[C@@H](C)O)CCCCCCC=CCCC[C@@](C)(C(N)=O)NC1=O [MP-147] (Ac-TS[2Nal][R8]EYWAL[Nle][S5]-NH2; staple 4-11) | > 50 µM | 20.59% | –
CC(=O)N[C@@H](CCCCN(C)C)C(=O)N[C@@H](CCCCN(C)C)C(=O)NCCCCCC(=O)N[C@H](C(=O)N[C@@H](CO)C(=O)N[C@@H](Cc1ccccc1)C(=O)N[C@]1(C)CCCCCCC=CCCC[C@@](C)(C(=O)N[C@@H](CCC(=O)O)C(=O)N[C@@H](CC(N)=O)C(=O)N[C@@H](Cc2ccccc2)C(N)=O)NC(=O)[C@H](CC(C)C)NC(=O)[C@H](CC(C)C)NC(=O)[C@H](C)NC(=O)[C@H](Cc2c[nH]c3ccccc23)NC(=O)[C@H](Cc2ccc(O)cc2)NC(=O)[C@H](CCC(=O)O)NC1=O)[C@@H](C)O [MP-2042] (Ac-[Lys(Me2)][Lys(Me2)][Ahx]TSF[R8]EYWALL[S5]ENF-NH2; staple 7-14) | > 50 µM | 5.569% | –
CC(=O)N[C@@H](CN)C(=O)NCCCCCC(=O)N[C@H](C(=O)N[C@@H](CO)C(=O)N[C@@H](Cc1ccccc1)C(=O)N[C@]1(C)CCCCCCC=CCCC[C@@](C)(C(=O)N[C@@H](CCC(=O)O)C(=O)N[C@@H](CC(N)=O)C(=O)N[C@@H](Cc2ccccc2)C(N)=O)NC(=O)[C@H](CC(C)C)NC(=O)[C@H](CC(C)C)NC(=O)[C@H](C)NC(=O)[C@H](Cc2c[nH]c3ccccc23)NC(=O)[C@H](Cc2ccc(O)cc2)NC(=O)[C@H](CCC(=O)O)NC1=O)[C@@H](C)O [MP-665] | > 50 µM | 4.993% | –
CC(=O)N[C@@H](CCCCN)C(=O)N[C@@H](CCCCN)C(=O)N[C@H](C(=O)N[C@@H](CO)C(=O)N[C@@H](Cc1ccccc1)C(=O)N[C@]1(C)CCCCCCC=CCCC[C@@](C)(C(N)=O)NC(=O)[C@H](CC2CCC2)NC(=O)[C@H](CC(C)C)NC(=O)[C@H](C)NC(=O)[C@H](Cc2c[nH]c3ccccc23)NC(=O)[C@H](Cc2ccc(O)cc2)NC(=O)[C@H](CCC(=O)O)NC1=O)[C@@H](C)O [MP-087] (Ac-KKTSF[R8]EYWAL[Cba][S5]-NH2; staple 6-13) | 35.2 µM | 23.77% | –
CC(=O)N[C@@H](CN)C(=O)N[C@@H](CN)C(=O)NCCCCCC(=O)N[C@H](C(=O)N[C@@H](CO)C(=O)N[C@@H](Cc1ccccc1)C(=O)N[C@]1(C)CCCCCCC=CCCC[C@@](C)(C(=O)N[C@@H](CCC(=O)O)C(=O)N[C@@H](CC(N)=O)C(=O)N[C@@H](Cc2ccccc2)C(N)=O)NC(=O)[C@H](CC(C)C)NC(=O)[C@H](CC(C)C)NC(=O)[C@H](C)NC(=O)[C@H](Cc2c[nH]c3ccccc23)NC(=O)[C@H](Cc2ccc(O)cc2)NC(=O)[C@H](CCC(=O)O)NC1=O)[C@@H](C)O [MP-663] (Ac-[Dap][Dap][Ahx]TSF[R8]EYWALL[S5]ENF-NH2; staple 7-14) | > 50 µM | – | –
CC(=O)N[C@H](C(=O)N[C@@H](CCCNC(N)=O)C(=O)N[C@H](C(=O)N[C@@H](CO)C(=O)N[C@@H](Cc1ccccc1)C(=O)N[C@]1(C)CCCCCCC=CCCC[C@@](C)(C(N)=O)NC(=O)[C@H](CC(C)C)NC(=O)[C@H](CC(C)C)NC(=O)[C@H](C)NC(=O)[C@H](Cc2c[nH]c3ccccc23)NC(=O)[C@H](Cc2ccc(O)cc2)NC(=O)[C@H](CCC(=O)O)NC1=O)[C@@H](C)O)C(C)C [MP-9667] | > 50 µM | 5.511% | –
CC(=O)N[C@@H](CCN)C(=O)NCCCCCC(=O)N[C@H](C(=O)N[C@@H](CO)C(=O)N[C@@H](Cc1ccccc1)C(=O)N[C@]1(C)CCCCCCC=CCCC[C@@](C)(C(=O)N[C@@H](CCC(=O)O)C(=O)N[C@@H](CC(N)=O)C(=O)N[C@@H](Cc2ccccc2)C(N)=O)NC(=O)[C@H](CC(C)C)NC(=O)[C@H](CC(C)C)NC(=O)[C@H](C)NC(=O)[C@H](Cc2c[nH]c3ccccc23)NC(=O)[C@H](Cc2ccc(O)cc2)NC(=O)[C@H](CCC(=O)O)NC1=O)[C@@H](C)O [MP-666] | > 50 µM | 15.43% | –
